Test results published in patent US20210283035A1, “AN ANTIMICROBIAL COMPOSITION” (Conopco, Inc., d/b/a UNILEVER, priority 2016, published 2021).

System: Malassezia furfur
Assay: ΣFIC assay against Malassezia furfur (in-vitro susceptibility testing, alamar blue)
Format: cell-based
Conditions: CBS1878, active alone, M. furfur CBS 1878 in Pityrosporum Broth, 32° C., complete growth inhibition by alamar blue, read-out: Minimum Inhibition Concentration (MIC)
Experimental: A brief description of the method is given below.
Methods: ΣFIC Assay Against Malassezia furfur
They are then incubated at 32° C. for 48 hrs with shaking. Then, 1 ml of the first broth culture is transferred into 9 ml of fresh PB and incubated at 32° C. for 48 hrs with shaking. The final culture should contain 2 to 6×10^6 cells/ml. This is achieved by diluting using PB to 5*10^5 cell/ml.
Binary combinations of ZPTO and the testing compound were prepared in 96-well plate by mixing 20 μl of zinc pyrithione solution with 20 μl of testing compound. The solution in each well were further mixed with 160 μl of PB and 20 μl of M. furfur. The final cell density in the testing plate is around 5*10^4 cell/ml, and the final concentration of actives in each well of the 96-wel plate were shown below.
The plate was incubated at 32° C. for one day. Then 20 μl of alamar blue (0.01%) was added into each well with a further incubation for one day to observe the color change. Red color indicates microbial growth and the non-changing blue color indicates no growth.
The MIC is defined as the absolute lowest concentration of active that provides complete microbial growth inhibition as indicated by the blue color of alamar blue under the tested condition. […]

| MIC | Structure (SMILES) |
| --- | --- |
| 500 µg/mL | O=C(c1ccccc1)c1ccc(O)cc1O [benzophenone-1] |
| 1000 µg/mL | O=C(c1ccc(O)cc1O)c1ccc(O)cc1O [benzophenone-2] |
